Source: PMC1989143, “An Expanded Set of Amino Acid Analogs for the Ribosomal Translation of Unnatural Peptides” (PLoS ONE, 2007)

Experiments:
Assay in all cases: tRNA aminoacylation competition assay, MALDI-TOF MS
Assay type in all cases: biochemical
[1] = molecular target: T1, PheRS (Escherichia coli, UniProt P08312); settings: 5000 µM; 5 µM natural Phe (Table 3), 6 mM ATP, 17 mM MgCl2, E. coli total tRNA, pH 7.4, 37 °C; competitive
T1 construct: gene pheS; His-tagged, recombinant, purified; wild-type enzyme; with Phenylalanine--tRNA ligase beta subunit
T1 sequence (P08312 whole entry): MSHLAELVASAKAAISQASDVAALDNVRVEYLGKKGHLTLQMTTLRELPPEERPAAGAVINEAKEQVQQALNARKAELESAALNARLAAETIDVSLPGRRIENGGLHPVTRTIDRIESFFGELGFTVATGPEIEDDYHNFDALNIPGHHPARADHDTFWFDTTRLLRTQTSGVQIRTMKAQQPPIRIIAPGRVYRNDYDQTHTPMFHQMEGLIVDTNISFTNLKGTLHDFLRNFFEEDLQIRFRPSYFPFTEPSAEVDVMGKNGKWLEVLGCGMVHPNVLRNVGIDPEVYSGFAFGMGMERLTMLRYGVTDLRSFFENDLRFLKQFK
T1 sequence (P07395 whole entry partner): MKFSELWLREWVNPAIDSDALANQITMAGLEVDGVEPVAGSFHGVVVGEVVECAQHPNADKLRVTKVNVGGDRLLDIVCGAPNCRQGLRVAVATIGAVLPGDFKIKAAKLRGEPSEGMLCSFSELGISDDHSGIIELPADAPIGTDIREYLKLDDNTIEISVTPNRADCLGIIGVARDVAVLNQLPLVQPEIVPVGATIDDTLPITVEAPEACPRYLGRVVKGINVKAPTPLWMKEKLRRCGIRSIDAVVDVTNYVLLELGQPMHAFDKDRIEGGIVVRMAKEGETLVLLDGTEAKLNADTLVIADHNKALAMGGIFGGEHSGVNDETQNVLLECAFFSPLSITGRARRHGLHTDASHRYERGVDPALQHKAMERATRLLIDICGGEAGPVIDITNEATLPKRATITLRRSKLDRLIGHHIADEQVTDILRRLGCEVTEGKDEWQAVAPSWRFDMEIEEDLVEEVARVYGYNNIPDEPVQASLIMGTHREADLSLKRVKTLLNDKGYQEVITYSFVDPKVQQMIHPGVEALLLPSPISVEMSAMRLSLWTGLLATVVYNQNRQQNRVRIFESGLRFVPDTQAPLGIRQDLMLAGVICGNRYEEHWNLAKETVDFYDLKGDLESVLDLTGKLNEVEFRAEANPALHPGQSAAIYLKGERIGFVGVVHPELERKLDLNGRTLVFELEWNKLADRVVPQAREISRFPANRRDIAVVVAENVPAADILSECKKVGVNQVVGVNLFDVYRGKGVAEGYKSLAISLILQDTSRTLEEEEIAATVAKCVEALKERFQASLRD
Text: tRNA aminoacylation competition assay, MALDI-TOF MS on PheRS

[2] = molecular target: T2, ThrRS (Escherichia coli, UniProt P0A8M3); settings: 50000 µM; 50 µM natural Thr (Table 3), 6 mM ATP, 17 mM MgCl2, E. coli total tRNA, pH 7.4, 37 °C; competitive
T2 construct: gene thrS; His-tagged, recombinant, purified
T2 sequence (P0A8M3 whole entry): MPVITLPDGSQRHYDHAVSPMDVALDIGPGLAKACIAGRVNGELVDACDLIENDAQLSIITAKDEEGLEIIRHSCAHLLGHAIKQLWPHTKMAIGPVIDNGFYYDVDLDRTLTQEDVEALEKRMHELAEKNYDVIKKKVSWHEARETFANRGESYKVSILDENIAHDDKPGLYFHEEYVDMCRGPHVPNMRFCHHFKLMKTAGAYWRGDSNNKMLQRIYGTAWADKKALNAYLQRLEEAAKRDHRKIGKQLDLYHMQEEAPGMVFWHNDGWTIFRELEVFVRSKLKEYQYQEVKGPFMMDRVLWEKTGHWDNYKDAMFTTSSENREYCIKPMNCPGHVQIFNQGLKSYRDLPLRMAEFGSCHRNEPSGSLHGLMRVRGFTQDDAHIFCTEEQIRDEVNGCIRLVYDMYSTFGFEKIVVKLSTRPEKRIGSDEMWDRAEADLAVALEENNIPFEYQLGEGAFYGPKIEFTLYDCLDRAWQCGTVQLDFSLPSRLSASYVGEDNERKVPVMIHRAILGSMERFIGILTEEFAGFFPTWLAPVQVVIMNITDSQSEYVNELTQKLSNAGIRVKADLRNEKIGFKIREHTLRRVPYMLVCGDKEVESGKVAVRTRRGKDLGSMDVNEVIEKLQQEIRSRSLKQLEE
Text: tRNA aminoacylation competition assay, MALDI-TOF MS on ThrRS

[3] = molecular target: T3, ArgRS (Escherichia coli, UniProt P11875); settings: 20000 µM; 20 µM natural Arg (Table 3), 6 mM ATP, 17 mM MgCl2, E. coli total tRNA, pH 7.4, 37 °C; competitive
T3 construct: gene argS; His-tagged, recombinant, purified
T3 sequence (P11875 1-577): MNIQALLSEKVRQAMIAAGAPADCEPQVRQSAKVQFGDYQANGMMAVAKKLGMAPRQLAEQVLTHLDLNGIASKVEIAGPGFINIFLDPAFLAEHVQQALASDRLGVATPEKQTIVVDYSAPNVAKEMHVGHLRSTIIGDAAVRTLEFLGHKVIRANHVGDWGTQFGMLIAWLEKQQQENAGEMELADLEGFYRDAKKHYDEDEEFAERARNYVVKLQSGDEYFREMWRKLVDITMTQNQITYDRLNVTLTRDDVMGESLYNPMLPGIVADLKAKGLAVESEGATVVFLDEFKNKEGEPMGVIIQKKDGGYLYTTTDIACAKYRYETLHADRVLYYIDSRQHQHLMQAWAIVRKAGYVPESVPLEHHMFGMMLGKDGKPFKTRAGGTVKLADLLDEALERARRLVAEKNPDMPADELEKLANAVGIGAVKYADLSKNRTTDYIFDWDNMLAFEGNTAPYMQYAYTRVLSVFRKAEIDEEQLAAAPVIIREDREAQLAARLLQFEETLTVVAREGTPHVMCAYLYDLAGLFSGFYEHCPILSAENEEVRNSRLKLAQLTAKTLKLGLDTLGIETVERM
Text: tRNA aminoacylation competition assay, MALDI-TOF MS on ArgRS

## NC(Cc1ccccc1F)C(=O)O (stereo not drawn) [A5, 2-fluoro Phe]
[1]
  % Inhibition ^b: 78 (range 2.1) %

## CCC(O)C(N)C(=O)O (racemic) [P5, DL-β-hydroxy norvaline]
[2]
  % Inhibition ^b: 92 (range 2.9) %

## N=C(N)NOCC[C@H](N)C(=O)O [C10, L-canavanine]
[3]
  % Inhibition ^b: 82 (range 10.3) %
